Measured values: patent US6602889B1, “5-heteroaryl substituted indoles” (H. Lundbeck A.S., priority 1998, dated 2003)
Where a name gives a salt, the structure may show the parent alone. Read-outs that look alike come from different tables or passages of the source.

Experiments:
α1-adrenoceptors = test: Inhibition of 3H-prazosin binding to α1-adrenoceptors in rat brain in vitro; details: 3H-prazosin 0.25 nM, membranes from rat brain
Procedure: Method and results in Hyttel & Larsen, J. Neurochem.
The tissue is homogenized (Ultra Turrax, 10 se) in 10 mL of ice cold 50 mM tris buffer pH 7.7 (at 25° C.). The homogenate is centrifuged twice at 20,000 g for 10 min at 4° C. with rehomogenization of the pellet in 10 ml icecold buffer. The final pellet is homogenized in 250 vol (w/v) icecold buffer.
The binding experiment is initiated by addition of […] of tissue suspension (final tissue content corresponds to 3 mg original tissue) and by placing the 96 deep well titer plate in a 25 ° C. water bath. All tests are made in triplicates. After incubation for 20 min, the samples are filtered on a Brandel harvester under vacuum (18 inch. Hg) through printed filtermat B (13 mm). Titerplates and filter are washed 1×10 sec flow 50 L/h with ice cold buffer.
The filter mat is dried for 1 h at 110° C. and then placed in a sample bag with Meltilex B/HS (14.5 g) and melted together on the T-Tray heat sealer.
(§1) For determination of the inhibition of binding, five concentrations of drugs covering 3 decades are used.

[1] = target: T1, serotonin S2 (5-HT2A) receptors (Rattus norvegicus, UniProt P14842); test: Inhibition of 3H-ketanserin binding to serotonin S2 (5-HT2A) receptors in rat cortex in vitro
T1 construct: Male Wistar (Mol:Wist) rats (125-250 g) are sacrificed and cortical tissue is dissected and weighed; from tissue; host or cells: rat cortex membranes (male Wistar rats)
Procedure: Inhibition of ^3H-Ketanserin Binding to Serotonin S2 (5-HT2Å) Receptors in Rat Cortex in vitro
By this method the inhibition by drugs of the binding of ^3H-ketanserin (0.5 nM) to serotonin S2 (5-HT2) receptors in membranes from rat cortex is determined in vitro.
The tissue is homogenized (Ultra Turrax, 10 sec) in 10 mL of ice cold 50 mM tris buffer pH 7.7 (at 25° C.). The centrifuge glassware used in this step has been rinsed by sonication for 10 min in ethanol. The homogenate is centrifuged twice at 20,000 g for 10 min. at 4° C., with rehomogenization of the pellet in 10 mL icecold buffer. The final pellet is homogenized in 250 vol (w/v) icecold buffer.
Incubation tubes (96 deep well titer plate) kept on ice receive […] of ^3H ketanserin (final concentration 0.5 nM).
The binding experiment is initiated by addition of […] of tissue suspension (final tissue content corresponds to 4 mg original tissue) and by placing the 96 deep well titer plate in a 37° C. water bath. All tests are made in triplicates.
After incubation for 30 min, the samples are filtered on a Brandel harvester under vacuum (18 inch. Hg) through printed filter mat B (13 mm). Titerplate and filter are washed 2×10 sec. flow 50 L/h with ice cold buffer.
The printed filter mat with purred labelled tissue are dried for 1 h at 110° C. and hereafter placed in a sample bag with Meltilex B/HS 14.5 g and melted together on the T-tray heat seal.
Specific binding is obtained by subtracting the nonspecific binding in the presence of 1 mM mianserin.
as §1
^3H-ketanserin=(ethylene-^3H)-ketanserin hydrochloride from New England Nuclear, specific activity 60-80 Ci/mmol.

dopamine D2 receptors = target: T2, dopamine D2 receptors (Rattus norvegicus, UniProt P61169); test: Inhibition of 3H-spiperone binding to dopamine D2 receptors in rat corpus striatum in vitro
T2 construct: Male Wistar (Mol:Wistar) rats (125-250 g) are sacrificed and striatal tissue is dissected and weighed; from tissue; host or cells: rat corpus striatum membranes (male Wistar rats)
Procedure: Inhibition of ^3H-Spiperone Binding to Dopamine D2 Receptors in Rat Corpus Striatum in vitro
By this method, the inhibition by drugs of the binding of ^3H -spiperone (=^3H-spiro-peridol) (0.5 nM) to dopamine D-2 receptors in membranes from rat corpus striatum is determined in vitro. […] Pharmacol. Toxicol. […] This is a test for dopamine D2 receptor binding affinity in vitro.
The tissue is homogenized (Ultra Turrax, 10 sec.) in 10 mL of ice-cold 50 mM K-phosphate buffer pH 7.4 (at 25° C.). The homogenate is centrifuged twice at 20,000 g for 10 min at 4° C. with rehomogenization of the pellet in 10 mL ice-cold buffer. The final pellet is homogenized in 1300 vol (w/v) ice-cold buffer.
The binding experiment is initiated by addition of 100 μl of ^3H-spiperone (final concentration 0.5 nM) and by placing the tubes in a 37° C. water bath. […] The tubes are rinsed with 5 mL ice-cold buffer which are then poured on the filters. Thereafter, the filters are washed with 2×5 mL of buffer. The filters are placed in counting vials and 4 mL of appropriate scintillation fluid (e.g. Picofluor ™15) are added. After shaking for 1 h and storage for 2 hrs in the dark, the content of radioactivity is determined by liquid scintillation counting. Specific binding is obtained by subtracting the nonspecific binding in the presence of 10 μM of 6,7-ADTN.
For determination of the inhibition of binding, five concentrations of drugs covering 3 orders of magnitude are used.
England, specific activity 15-25 Ci/mmol.

[2] = 3H-ketanserin 0.5 nM, membranes from rat cortex, read-out: IC50 values in nM, 5-HT2A
[3] = 3H-spiperone 0.5 nM, membranes from rat corpus striatum, read-out: IC50 values in nM, D2

T2 sequence (P61169 whole entry): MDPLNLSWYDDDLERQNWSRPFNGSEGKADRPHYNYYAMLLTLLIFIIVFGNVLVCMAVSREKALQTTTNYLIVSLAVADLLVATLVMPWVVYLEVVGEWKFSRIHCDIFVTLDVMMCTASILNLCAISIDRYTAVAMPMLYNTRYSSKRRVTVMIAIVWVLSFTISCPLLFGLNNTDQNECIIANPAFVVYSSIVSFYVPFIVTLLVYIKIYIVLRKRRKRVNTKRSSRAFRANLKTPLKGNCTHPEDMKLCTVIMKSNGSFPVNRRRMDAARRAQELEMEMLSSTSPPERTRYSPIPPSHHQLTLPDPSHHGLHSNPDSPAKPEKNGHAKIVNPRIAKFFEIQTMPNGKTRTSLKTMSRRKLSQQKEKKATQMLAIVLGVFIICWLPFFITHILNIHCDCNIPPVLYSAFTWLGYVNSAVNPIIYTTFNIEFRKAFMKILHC
T1 sequence (P14842 whole entry): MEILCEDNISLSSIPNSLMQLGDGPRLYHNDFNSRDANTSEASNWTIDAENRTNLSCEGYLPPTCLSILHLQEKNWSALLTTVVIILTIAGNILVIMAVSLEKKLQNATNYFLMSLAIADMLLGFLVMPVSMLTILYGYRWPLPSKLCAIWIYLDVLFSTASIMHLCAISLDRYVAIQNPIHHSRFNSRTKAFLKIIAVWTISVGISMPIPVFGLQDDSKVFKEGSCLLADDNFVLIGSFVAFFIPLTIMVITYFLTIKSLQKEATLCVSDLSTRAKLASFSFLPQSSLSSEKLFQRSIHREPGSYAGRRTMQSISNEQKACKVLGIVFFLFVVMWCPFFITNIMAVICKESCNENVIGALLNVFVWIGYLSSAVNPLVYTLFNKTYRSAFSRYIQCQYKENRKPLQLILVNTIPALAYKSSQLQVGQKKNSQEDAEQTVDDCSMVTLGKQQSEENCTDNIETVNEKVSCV

SMILES	melting point [°C]	IC50 (α1-adrenoceptors) [nM]	IC50 [1, 2] [nM]	IC50 (dopamine D2 receptors; [3]) [nM]	IC50 [1] [nM]	IC50 (dopamine D2 receptors) [nM]
Cn1nnnc1Cc1ccc2c(c1)c(C1CCN(CCN3CCNC3=O)CC1)cn2-c1ccc(F)cc1 (as salt: fumarate) [Compound 23c, 1-[2-[4-[(-(4-fluorophenyl)-5-[(1-methyltetrazol-5-yl)methyl]-1H-indol-3-yl]-1-piperidinyl]ethyl]-2-imidazolidinone 2.5 fumarate]	169 to 171	–	–	–	–	–
Cn1nnc(-c2ccc3c(c2)c(C2=CCN(CCN4CCNC4=O)CC2)cn3-c2ccncc2)n1 [Compound 5a, 1-[2-[4-[5-(2-Methyltetrazol-5-yl)-1-(4-pyridyl)-1H-indol-3-yl]-1,2,3,6-tetrahydro-1-pyridinyl]ethyl]-2-imidazolidinone]	177 to 178	12	> 100	> 100	–	–
Cn1nnc(-c2ccc3c(c2)c(C2CCN(CCN4CCNC4=O)CC2)cn3-c2ccncc2)n1 [Compound 6a, 1-[2-[4-[5-(2-Methyltetrazol-5-yl)-1-(4-pyridyl)-1H-indol-3-yl]-1-piperidinyl]ethyl]-2-imidazolidinone]	204 to 206	18	> 100	> 100	–	–
Cn1nnc(CCN2CC=C(c3cn(-c4ccc(F)cc4)c4ccc(-c5nnn(C)n5)cc34)CC2)n1 [Compound 17a, 1-(4-Fluorophenyl)-5-(2-methyltetrazol-5-yl)-3-[1-[2-(2-methyltetrazo-5-yl)ethyl]-1,2,3,6-tetrahydropyridin-4-yl]-1H-indole]	–	4	70	20	–	–
Cn1nnc(-c2ccc3c(c2)c(C2=CCN(CCc4nnnn4C)CC2)cn3-c2ccc(F)cc2)n1 [Compound 17b, 1-(4-Fluorophenyl)-5-(2-methyltetrazol-5-yl)-3-[1-[2-(1-methyltetrazol-5-yl)ethyl]-1,2,3,6-tetrahydropyridin-4-yl]-1H-indole, fumarate]	–	4.9	450	97	–	–
CN1CC=C(c2cn(-c3ccc(F)cc3)c3ccc(-c4nnn(C)n4)cc23)CC1 [Compound 21b]	142 to 144	9.4	–	–	> 100	14
Cn1nnc(-c2ccc3c(c2)c(C2=CCN(CCN4CCNC4=O)CC2)cn3-c2ccc(F)cc2)n1 [Compound 22a, 1-[2-[4-[1-(4-Fluorophenyl)-5-(2-methyltetrazol-5-yl)-1H-indol-3-yl]-1,2,3,6-tetrahydropyridin-1-yl]ethyl]-2-imidazolidinone]	–	1.5	210	37	–	–
Cn1nnnc1-c1ccc2c(c1)c(C1=CCN(CCN3CCNC3=O)CC1)cn2-c1ccc(F)cc1 [Compound 22b, 1-[2-[4-[1-(4-fluorophenyl)-5-(1-methyltetrazol-5-yl)-1H-indol-3-yl]-1,2,3,6-tetrahydropyridin-1-yl]ethyl]-2-imidazolidinone]	198 to 200	0.75	38	4.7	–	–
CCn1nnc(-c2ccc3c(c2)c(C2=CCN(CCN4CCNC4=O)CC2)cn3-c2ccc(F)cc2)n1 [Compound 22c]	179 to 181	7.8	> 100	110	–	–
Cn1nnnc1Cc1ccc2c(c1)c(C1=CCN(CCN3CCNC3=O)CC1)cn2-c1ccc(F)cc1 [Compound 22d, 1-[2-[4-[1-(4-fluorophenyl)-5-[(1-methyltetrazol-5-yl)methyl]-1H-indol-3-yl]-1,2,3,6-tetrahydropyridin-1-yl]ethyl]-2-imidazolidinone]	174 to 176	0.72	18	5	–	–
Cn1nnc(Cc2ccc3c(c2)c(C2=CCN(CCN4CCNC4=O)CC2)cn3-c2ccc(F)cc2)n1 [Compound 22e, 1-[2-[4-[1-(4-fluorophenyl)-5-[(2-methyltetrazol-5-yl)methyl]-1H-indol-3-yl]-1,2,3,6-tetrahydropyridin-1-yl]ethyl]-2-imidazolidinone]	129 to 131	1.5	5	8.6	–	–
Cn1ncc(-c2ccc3c(c2)c(C2=CCN(CCN4CCNC4=O)CC2)cn3-c2ccc(F)cc2)n1 [Compound 22g, 1-[2-[4-[1-(4-fluorophenyl)-5-(2-methyltriazol-4-yl)-1H-indol-3-yl]-1,2,3,6-tetrahydropyridin-1-yl]ethyl]-2-imidazolidinone]	175 to 177	–	94	28	–	–
CCn1ncc(-c2ccc3c(c2)c(C2=CCN(CCN4CCNC4=O)CC2)cn3-c2ccc(F)cc2)n1 [Compound 22i, 1-[2-[4-[5-(2-ethyltriazol-4-yl)-1-(4-fluorophenyl)-1H-indol-3-yl]-1,2,3,6-tetrahydropyridin-1-yl]ethyl]-2-imidazolidinone]	143 to 145	–	22	51	–	–
CCn1nnc(-c2ccc3c(c2)c(C2CCN(CCN4CCNC4=O)CC2)cn3-c2ccc(F)cc2)n1.Cl.Cl [Compound 23a, 1-[2-[4-[5-(2-ethyltetrazol-5-yl)-1-(4-fluorophenyl)-1H-indol-3-yl]-1-piperidinyl]ethyl]-2-imidazolidinone dihydrochloride]	172 to 174	6.1	53	> 100	–	–
CN1CCC(c2cn(-c3ccc(F)cc3)c3ccc(-c4nnn(C)n4)cc23)CC1 [Compound 23b, 1-(4-fluorophenyl)-3-(1-methyl-4-piperidinyl)-5-(2-methyltetrazol-5-yl)-1H-indole]	–	7.1	> 100	> 100	–	–
Cn1nnnc1Cc1ccc2c(c1)c(C1CCN(CCN3CCNC3=O)CC1)cn2-c1ccc(F)cc1 [Compound 23c, 1-[2-[4-[(-(4-fluorophenyl)-5-[(1-methyltetrazol-5-yl)methyl]-1H-indol-3-yl]-1-piperidinyl]ethyl]-2-imidazolidinone 2.5 fumarate]	–	0.5	8.3	3.7	–	–
COc1cc2nc(N3CCN(C(=O)c4ccco4)CC3)nc(N)c2cc1OC [Prazosin, prazosin, reference compound]	–	0.36	–	11000	–	–
O=C1NCCN1CCN1CCC(c2cn(-c3ccc(F)cc3)c3ccc(Cl)cc23)CC1 [Sertindole, sertindole, reference compound]	–	3.4	–	–	–	–
